{
  "source": "paper PMC3105312",
  "about": "(Nature Communications, 2011)",
  "molecular_target": "PspF1-275 (Escherichia coli, UniProt P37344)",
  "sequence (P37344 1-275)": "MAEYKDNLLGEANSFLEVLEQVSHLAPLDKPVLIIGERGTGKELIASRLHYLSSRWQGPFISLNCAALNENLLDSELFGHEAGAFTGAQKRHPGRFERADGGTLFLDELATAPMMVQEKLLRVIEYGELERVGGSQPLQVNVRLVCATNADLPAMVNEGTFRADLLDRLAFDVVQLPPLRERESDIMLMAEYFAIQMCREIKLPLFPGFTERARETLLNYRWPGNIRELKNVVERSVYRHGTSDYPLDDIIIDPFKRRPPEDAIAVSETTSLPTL",
  "conditions": "10 μM protein, pH 8.0, on ice; labelled compound; comparative control",
  "data": [
    {"molecule": "Nc1ncnc2c1ncn2[C@@H]1O[C@H](COP(=O)(O)OP(=O)(O)OP(=O)(O)O)[C@@H](O)[C@H]1O", "note": "[ATP]", "values": [
      {"measurement": "ultraviolet crosslinking of [α-32P]ATP, SDS-PAGE, phosphorimaging", "value": "at a level comparable to that of the structurally and functionally characterized EBP PspF"}
    ]}
  ]
}
